In a melting point compilation (Tetko et al.; mined from patent text by program, amines drawn as free bases though some values may be those of a salt):

Row | Compound | melting point
1 | CCC(=O)NC1CCc2ccccc2C1 (configuration not stated) | 99 to 101 °C
2 | O=C1OCC2=C1C(c1ccccc1Cl)c1c[nH]nc1N2 (configuration not stated) | > 270 °C
3 | CC(C)N1C(=S)NC(c2ccccc2)c2cc3c(cc21)OCO3 (configuration not stated) | 214 to 218 °C
4 | CC1=Cc2cc(F)c(F)cc2C1 | 86 to 90 °C
5 | COC(=O)Cc1nc(-c2cc(C(C)(C)C)c(O)c(C(C)(C)C)c2)oc1C | 121 to 123 °C
6 | O=C(O)c1cc2c(s1)CCC2=O | 195 to 196 °C
7 | O=C1NC(=O)c2c1c(-c1ccccc1Cl)cc1c2c2cc(O)ccc2n1CC(O)CO (configuration not stated) | 305 to 309 °C
8 | O=C(Nc1ccccc1S(=O)(=O)N1CCCCC1)N[C@@H](Cc1ccc(Oc2nccc3ccncc23)cc1)C(=O)O | 159 °C
9 | O=P(O)(c1ccc(S(=O)(=O)c2ccccc2)cc1)c1ccc(S(=O)(=O)c2ccccc2)cc1 | 155 to 165 °C
10 | O=C(CBr)C(O)(CBr)c1ccc(F)cc1 (configuration not stated) | 90 °C
11 | CCc1cc(-c2ccc(C(C)=O)cc2)ccc1OC | 69 to 72 °C
12 | Cc1oc(-c2cccc(-c3ccccc3)c2)nc1CCOc1cccc(OC(C)(C)C(=O)O)c1 | 67 to 71 °C
13 | COc1cc(C#N)ccc1C=NO | 170 to 171 °C
14 | O=C(O)Cc1c(-c2ccccc2)nn(-c2cccnc2)c1-c1ccccc1 | 185 to 187 °C
15 | CCCCCCc1cc2c(cc1OCCCC(=O)O)C(=O)C(C)(C)C2 | 82 °C
16 | CSc1cc(C)c(O)cc1C | 98 to 99 °C
17 | CC(Oc1c(Br)cc(Br)cc1Br)c1cc(Br)c(Br)cc1Br (configuration not stated) | 110 to 112 °C
18 | FC(F)(F)c1cccc(C2=NOC(CNC(=S)N3CCOCC3)C2)c1 (configuration not stated) | 118 to 120 °C
19 | [O-][N+]1=C(c2ccccc2F)c2cc(Cl)ccc2N=C(C2CCCN2C=NO)C1 (configuration not stated) | 168 to 172 °C
20 | O=[N+]([O-])c1cc(Cl)cc2c(Cl)ccnc12 | 149 to 164 °C
21 | CCCCCCCCCCC=Cc1cnn(C(C(=O)Nc2c(C(C)C)cccc2C(C)C)c2ccccc2)c1 (configuration not stated) | 158 °C
22 | CCCCc1nc2cccc(C(=O)OC)c2n1Cc1ccc(-c2ccccc2CO)cc1 | 126 to 127 °C
23 | CCCCN(Cc1ccc(-c2ccccc2-c2nc(=O)o[nH]2)cc1)c1ncccc1C(=O)O | 95 to 98 °C
24 | Cc1cc(C2(C(F)(F)C(F)(F)C(F)(F)F)CC(c3ccc(Cl)cc3)=NO2)ccc1NC(=O)c1cccc(I)c1C(=O)NC(C)C (configuration not stated) | 156 to 158 °C

Row | Compound | melting point
25 | CC(c1ccccc1)N1CC(CF)(C(=O)NCc2ccccc2)CC1=O (configuration not stated) | 114 to 116 °C
26 | CCCc1c(OCCCOc2ccc(C(=O)C(=O)O)cc2)ccc(C(C)=O)c1O | 129 to 130 °C
27 | O=C(c1c(F)cccc1F)N1CNCN(c2ccc(Oc3ccc(C(F)(F)F)cc3Cl)cc2F)C1=O | 135 to 137 °C
28 | CC(C)(C)OC(=O)NC(CC1=CC(=O)NC1=O)C(=O)OC(C)(C)C (configuration not stated) | 104 to 105 °C
29 | CC1(CC(=O)Nc2cccc3ncccc23)CCCCC1 | 133 to 135 °C
30 | COc1ccc(-c2nc(C)nn2-c2ccc(S(N)(=O)=O)cn2)cc1 | 191 to 192 °C
31 | O=C(N[C@H](Cc1ccc(C(F)(F)F)cc1)[C@@H](O)c1cccc2ccccc12)c1ccc(C(F)(F)F)cc1 (racemic) | 232 to 233 °C
32 | CC(=O)c1ccc2c(c1)C=CC(=O)CO2 | 92 to 93 °C
33 | CCCCCON=C(C(=O)OCC)c1csc(N)n1 | 86 to 88 °C
34 | O=C1N(C2CCCCC2)CC(CN2CCC(O)(c3ccccc3)CC2)C1(c1ccccc1)c1ccccc1 (configuration not stated) | 179 to 184 °C
35 | CC(C)(C)OC(=O)N1CCC(c2ncc(-c3cnc(-c4ccccc4)nc3)[nH]2)C1 (configuration not stated) | 219 °C
36 | CCCNC(=O)Nc1ccc(N2CCOCC2)cc1C(=O)NCC1CCN(C(c2ccccc2)c2ccccc2)CC1 | 215 to 217 °C
37 | Clc1ccc2nc(-c3cccnc3)[nH]c2c1 | 244 to 246 °C
38 | O=C(CCCCl)c1cc2c(s1)C(=O)NCCC2 | 163 to 165 °C
39 | OC(c1ccc(Cl)cc1)(c1ccc(Cl)cc1)c1nccn1COCc1ccccc1 | 139 to 141 °C
40 | c1ccc(-c2nc3ccc(NCCCN4CCC(OC(c5ccccc5)c5ccccc5)CC4)nn3n2)cc1 | 170 to 172 °C
41 | Cc1cc(-c2ccc(S(C)=O)cc2)n(-c2ccc(S(N)(=O)=O)cc2)c1 (configuration not stated) | 222 to 226 °C
42 | OC1Cc2ccccc2Sc2cc(Cl)c(F)cc21 (configuration not stated) | 86 to 87 °C
43 | Cc1nc(-c2ccccc2)c(CBr)o1 | 75 to 76 °C
44 | CC(C)(C)OC(=O)N[C@@H](Cc1ccccc1)C(=O)N[C@@H](Cc1ccc(O)c(I)c1)C(=O)OCc1ccccc1 | 81.6 to 82.7 °C
45 | CCCCOCCOC(=O)NCCCCCCNC(=O)OCCOCCCC | 64 to 66 °C
46 | O=C(O)c1ccc([N+](=O)[O-])c(C(=O)O)c1 | 257 to 258 °C
47 | COc1cc(N)c2ncccc2c1OCC(F)(F)F | 91 to 94 °C
48 | CC(=O)Nc1ccc(S(=O)(=O)Cc2cccc(OC(C)=O)c2)c2cccnc12 | 179 to 182 °C

Row | Compound | melting point
49 | Cc1ccc(Oc2ccc(-n3cnnn3)cc2)c(O)c1 | 129 to 132 °C
50 | C=CC1(C(=O)c2ccc(Cl)cc2)C=CC=CC1Cl (configuration not stated) | 120 to 122 °C
51 | Cc1c(C)c2c(c(C)c1N)CC(C)(CN1CCN(C(=O)c3ccc(Cl)cc3)CC1)O2 (configuration not stated) | 136 to 138 °C
52 | CCCCCCC(O)CCCCCCCC(COC(C)=O)(COC(C)=O)NC(C)=O (configuration not stated) | 82 to 84 °C
53 | CCC1=C(C)C(=C(C#N)C#N)C(C)=C(CC)O1 | 64 to 65 °C
54 | COc1cc2c(Cl)c(C#N)cnc2cc1NC(C)=O | 230 to 235 °C
55 | COc1ccc(Sc2cc3ccccc3nn2)cc1 | 108 °C
56 | CCOC(=O)/C=C/c1cccc(-c2ccc(OCC)c(OC)c2)c1 | 89 to 91 °C
57 | CCOC(=O)c1cnc2ccc(Cl)nn2c1=O | 149 to 152 °C
58 | OC1(c2cc(F)cc(CC#COC#CCc3cc(F)cc(C4(O)CCOCC4)c3)c2)CCOCC1 | 120 to 122 °C
59 | CC(=O)c1ccc2c(c1)SC(C)(C)S2 | 75 to 76 °C
60 | Cc1cn(-c2cc(C)c(N)c(Br)c2)c(C)n1 | 176 to 180 °C
61 | CC(c1oc2ccccc2c(=O)c1-c1cccc(F)c1)n1nc(-c2ccc(O)c(O)c2)c2c(N)ncnc21 (configuration not stated) | 193 to 195 °C
62 | CC(O)CCCOc1ccc2nc3[nH]c(=O)[nH]c3cc2c1 (configuration not stated) | 301 to 303 °C
63 | CCn1cc(CN(C(=O)C2CCCc3c(O)cccc32)c2ccc(OC)cc2)cn1 (configuration not stated) | 211 to 213 °C
64 | CCOCn1cc(-c2ccnc(N)n2)c2c(OC)cc(Br)nc21 | > 210 °C
65 | O=C1CC(=O)CC2(CCOCC2)C1 | 162 to 164 °C
66 | Nc1c2c(nc3ccccc13)-c1ccc(Cl)cc1CC2 | 205 to 208 °C
67 | C#Cc1ccc(-c2nc(-c3ccccc3)nc(-c3ccc(C#C)cc3)n2)cc1 | 215 °C
68 | COc1cc(Cn2ccc3ncnc-3c2)ccc1C(=O)N(C1CCCC1)C1CC(C)CC(C)C1 (configuration not stated) | 218 to 220 °C
69 | Oc1ccc2ccc(Oc3c(Cl)cc(C(F)(F)F)cc3Cl)cc2c1 | 98 °C
70 | O=c1ccn2c(c1O)C(c1ccc(Cl)cc1)OCC2 (configuration not stated) | 211 to 214 °C
71 | COC(=O)C(=O)c1cc(F)c(OCCOc2ccc3ccccc3c2)c(F)c1 | 114 to 115 °C
72 | C#Cc1cnc2c(C)cc(OC(SC)C(=O)NC(C)(C#N)CF)cc2c1 (configuration not stated) | 180 to 182 °C
